Experimental data taken from patent US5466671A, “Apidaecin-type peptide antibiotics with improved activities and/or different antibacterial spectrum” (priority 1994, dated 1995).
Residues, ends and D or L forms follow the SMILES beside them.

How the values were obtained:
[1] = test system: Klebsiella pneumoniae; test: Inhibition zone assay (agar plate); type: cell-based; conditions: agar plate, 50 nanomoles/well, 3 mm wells
[2] = test system: Agrobacterium tumefaciens; test: Inhibition zone assay (agar plate); type: cell-based; conditions: agar plate, 50 nanomoles/well, 3 mm wells
[3] = test system: A. calcoaceticus; test: Minimal inhibitory concentration (liquid culture); conditions: inoculum 16 × 10^6 CFU/ml; a-b = highest concentration with growth - lowest without growth
[4] = test system: Enterobacter cloacae; test: Inhibition zone assay (agar plate); type: cell-based; conditions: agar plate, 50 nanomoles/well, 3 mm wells
[5] = test system: Escherichia coli (11775 Apid R); type: cell-based; conditions: agar plate, 50 nanomoles/well, 3 mm wells
[6] = test system: Acinetobacter calcoaceticus; test: Inhibition zone assay (agar plate); type: cell-based; conditions: agar plate, 50 nanomoles/well, 3 mm wells
[7] = test system: Erwinia amylovora; test: Inhibition zone assay (agar plate); type: cell-based; conditions: agar plate, 50 nanomoles/well, 3 mm wells
[8] = test system: E. coli 11775; test: Minimal inhibitory concentration (liquid culture); conditions: for minimal inhibitory concentration (MIC): a-b = highest concentration with growth - lowest without growth
[9] = test system: M. morganii; test: Minimal inhibitory concentration (liquid culture); conditions: inoculum 400 CFU/ml; a-b = highest concentration with growth - lowest without growth
[10] = test system: Salmonella typhimurium; test: Inhibition zone assay (agar plate); type: cell-based; conditions: agar plate, 50 nanomoles/well, 3 mm wells
[11] = test system: Haemophilus influenzae; test: Inhibition zone assay (agar plate); type: cell-based; conditions: 50 nanomoles/well, 3 mm wells
[12] = test system: E. coli 25922; test: Minimal inhibitory concentration (liquid culture); conditions: inoculum 1100 CFU/ml; a-b = highest concentration with growth - lowest without growth
[13] = test system: Rhizobium meliloti; test: Inhibition zone assay (agar plate); type: cell-based; conditions: 50 nanomoles/well, 3 mm wells
[14] = test system: Pseudomonas syringae; test: Inhibition zone assay (agar plate); type: cell-based; conditions: agar plate, 50 nanomoles/well, 3 mm wells
[15] = test system: Escherichia coli (K514); type: cell-based; conditions: agar plate, 50 nanomoles/well, 3 mm wells
[16] = test system: Legionella pneumophila; type: cell-based; conditions: agar plate, 50 nanomoles/well, 3 mm wells
[17] = test system: Campylobacter jejuni; test: Inhibition zone assay (agar plate); type: cell-based; conditions: 50 nanomoles/well, 3 mm wells
[18] = test system: S. typhimurium; test: Minimal inhibitory concentration (liquid culture); conditions: inoculum 8 × 10^6 CFU/ml; a-b = highest concentration with growth - lowest without growth
[19] = test system: Morganella morganii; test: Inhibition zone assay (agar plate); type: cell-based; conditions: 50 nanomoles/well, 3 mm wells
[20] = test system: E. coli 23802; test: Minimal inhibitory concentration (liquid culture); conditions: inoculum 5000 CFU/ml; a-b = highest concentration with growth - lowest without growth
[21] = test system: Shigella dysenteriae; type: cell-based; conditions: agar plate, 50 nanomoles/well, 3 mm wells
[22] = test system: E. coli Apid^R; test: Minimal inhibitory concentration (liquid culture); type: cell-based; conditions: a-b = highest concentration with growth - lowest without growth
From the text: For details see `Experimental Procedures`.

[23] = test system: Escherichia coli (ATCC11775); test: Inhibition zone assay (agar plate); type: cell-based; conditions: agar plate, 50 nanomoles/well, 3 mm wells
[24] = test system: Y. enterocolitica; test: Minimal inhibitory concentration (liquid culture); conditions: inoculum 5000 CFU/ml; a-b = highest concentration with growth - lowest without growth
[25] = test system: Salmonella typhi; type: cell-based; conditions: agar plate, 50 nanomoles/well, 3 mm wells

CC[C@H](C)[C@H](NC(=O)[C@@H]1CCCN1C(=O)[C@H](C)NC(=O)[C@@H]1CCCN1C(=O)[C@H](CCCNC(=N)N)NC(=O)[C@@H]1CCCN1C(=O)[C@H](CCCCN)NC(=O)[C@@H](N)CO)C(=O)N[C@@H](CCCCN)C(=O)N1CCC[C@H]1C(=O)N[C@@H](CCCNC(=N)N)C(=O)N1CCC[C@H]1C(=O)N1CCC[C@H]1C(=O)N[C@@H](Cc1c[nH]cn1)C(=O)N1CCC[C@H]1C(=O)N[C@@H](CCCNC(=N)N)C(=O)N[C@@H](CC(C)C)C(=O)O [Cd 3-, Ser--Lys--Pro--Arg--Pro--Ala--Pro--Ile--Lys--Pro--Arg--Pro--Pro--His--Pro--Arg--Leu] (H-SKPRPAPIKPRPPHPRL-OH)
inhibition zone diameter (number of plus signs) [1]: ++ ((++) 7-9 mm)
inhibition zone diameter (number of plus signs) [2]: ++ ((++) 7-9 mm)
minimal inhibitory concentration (MIC) [3]: 10 to 20 µg/mL
inhibition zone diameter (number of plus signs) [4]: +++ ((+++) 10-14 mm)
inhibition zone diameter (number of plus signs) [5]: ++ ((++) 7-9 mm)
inhibition zone diameter (number of plus signs) [6]: + ((+) 5-6 mm)
inhibition zone diameter (number of plus signs) [7]: + ((+) 5-6 mm)
minimal inhibitory concentration (MIC) ([8]; inoculum 16 × 10^6 CFU/ml): 0.5 to 1 µg/mL
minimal inhibitory concentration (MIC) ([8]; inoculum 1200 CFU/ml): 0.1 to 0.5 µg/mL
minimal inhibitory concentration (MIC) [9]: 1 to 5 µg/mL
inhibition zone diameter (number of plus signs) [10]: ++ ((++) 7-9 mm)
inhibition zone diameter (number of plus signs) [11]: +++ ((+++) 10-14 mm)
minimal inhibitory concentration (MIC) [12]: 0.5 to 1 µg/mL
inhibition zone diameter (number of plus signs) [13]: ++++ ((++++) 15-19 mm)
inhibition zone diameter (number of plus signs) [14]: ++ ((++) 7-9 mm)
inhibition zone diameter (number of plus signs) [15]: + ((+) 5-6 mm)
inhibition zone diameter (number of plus signs) [16]: ++ ((++) 7-9 mm)
inhibition zone diameter (number of plus signs) [17]: ++++ ((++++) 15-19 mm)
minimal inhibitory concentration (MIC) [18]: 1 to 5 µg/mL
inhibition zone diameter (number of plus signs) [19]: ++ ((++) 7-9 mm)
minimal inhibitory concentration (MIC) [20]: 5 to 10 µg/mL
inhibition zone diameter (number of plus signs) [21]: ++ ((++) 7-9 mm)
minimal inhibitory concentration (MIC) ([22]; inoculum 12 × 10^6 CFU/ml): 5 to 10 µg/mL
minimal inhibitory concentration (MIC) ([22]; inoculum 1000 CFU/ml): 5 to 10 µg/mL
inhibition zone diameter (number of plus signs) [23]: ++ ((++) 7-9 mm)
minimal inhibitory concentration (MIC) [24]: 20 to 40 µg/mL

CC[C@H](C)[C@H](NC(=O)[C@@H]1CCCN1C(=O)[C@H](C)NC(=O)[C@@H]1CCCN1C(=O)[C@H](CCCNC(=N)N)NC(=O)[C@@H]1CCCN1C(=O)[C@H](CCCCN)NC(=O)[C@H](CO)NC(=O)[C@@H]1CCCN1C(=O)[C@H](CCCCN)NC(=O)CN)C(=O)N[C@@H](CCCCN)C(=O)N1CCC[C@H]1C(=O)N[C@@H](CCCNC(=N)N)C(=O)N1CCC[C@H]1C(=O)N1CCC[C@H]1C(=O)N[C@@H](Cc1c[nH]cn1)C(=O)N1CCC[C@H]1C(=O)N[C@@H](CCCNC(=N)N)C(=O)N[C@@H](CC(C)C)C(=O)O [Cd 3+, Gly--Lys--Pro--Ser--Lys--Pro--Arg--Pro--Ala--Pro--Ile--Lys--Pro--Arg--Pro--Pro--His--Pro--Arg--Leu] (H-GKPSKPRPAPIKPRPPHPRL-OH)
inhibition zone diameter (number of plus signs) [1]: ++ ((++) 7-9 mm)
inhibition zone diameter (number of plus signs) [2]: +++ ((+++) 10-14 mm)
minimal inhibitory concentration (MIC) [3]: 10 to 20 µg/mL
inhibition zone diameter (number of plus signs) [4]: +++ ((+++) 10-14 mm)
inhibition zone diameter (number of plus signs) [5]: ++ ((++) 7-9 mm)
inhibition zone diameter (number of plus signs) [6]: + ((+) 5-6 mm)
inhibition zone diameter (number of plus signs) [7]: + ((+) 5-6 mm)
minimal inhibitory concentration (MIC) ([8]; inoculum 16 × 10^6 CFU/ml): 0.1 to 0.5 µg/mL
minimal inhibitory concentration (MIC) ([8]; inoculum 1200 CFU/ml): 0.1 to 0.5 µg/mL
inoculum effect on inhibition of viability ([8]; inoculum sizes differing by four orders of magnitude): equally well
minimal inhibitory concentration (MIC) [9]: 1 to 5 µg/mL
inhibition zone diameter (number of plus signs) [10]: ++ ((++) 7-9 mm)
inhibition zone diameter (number of plus signs) [11]: ++++ ((++++) 15-19 mm)
minimal inhibitory concentration (MIC) [12]: 0.1 to 0.5 µg/mL
inhibition zone diameter (number of plus signs) [13]: +++ ((+++) 10-14 mm)
inhibition zone diameter (number of plus signs) [14]: ++ ((++) 7-9 mm)
inhibition zone diameter (number of plus signs) [15]: + ((+) 5-6 mm)
inhibition zone diameter (number of plus signs) [16]: ++ ((++) 7-9 mm)
inhibition zone diameter (number of plus signs) [17]: +++++ ((+++++) 20 or more min)
inhibition zone diameter (number of plus signs) [25]: ++ ((++) 7-9 mm)
minimal inhibitory concentration (MIC) [18]: 0.1 to 0.5 µg/mL
inhibition zone diameter (number of plus signs) [19]: ++ ((++) 7-9 mm)
minimal inhibitory concentration (MIC) [20]: 0.1 to 0.5 µg/mL
minimal inhibitory concentration (MIC) ([22]; inoculum 12 × 10^6 CFU/ml): 0.5 to 1.5 µg/mL
minimal inhibitory concentration (MIC) ([22]; inoculum 12 × 10^6 CFU/ml, listed as Cd3+): measurable activities
minimal inhibitory concentration (MIC) ([22]; inoculum 1000 CFU/ml): 0.5 to 1 µg/mL
inhibition zone diameter (number of plus signs) [23]: ++ ((++) 7-9 mm)
minimal inhibitory concentration (MIC) [24]: 10 to 20 µg/mL

CC[C@H](C)[C@H](NC(=O)[C@@H]1CCCN1C(=O)[C@H](C)NC(=O)[C@@H]1CCCN1C(=O)[C@H](CCCNC(=N)N)NC(=O)[C@@H]1CCCN1C(=O)[C@H](CCCNC(=N)N)NC(=O)[C@H](CC(N)=O)NC(=O)[C@@H]1CCCN1C(=O)[C@H](CCCCN)NC(=O)CN)C(=O)N[C@@H](CCC(N)=O)C(=O)N1CCC[C@H]1C(=O)N[C@@H](CCCNC(=N)N)C(=O)N1CCC[C@H]1C(=O)N1CCC[C@H]1C(=O)N[C@@H](Cc1c[nH]cn1)C(=O)N1CCC[C@H]1C(=O)N[C@@H](CCCNC(=N)N)C(=O)N[C@@H](CC(C)C)C(=O)O [Cd 1+, Gly--Lys--Pro--Asn--Arg--Pro--Arg--Pro--Ala--Pro--Ile--Gln--Pro--Arg--Pro--Pro--His--Pro--Arg--Leu] (H-GKPNRPRPAPIQPRPPHPRL-OH)
inhibition zone diameter (number of plus signs) [1]: ++ ((++) 7-9 mm)
inhibition zone diameter (number of plus signs) [2]: ++++ ((++++) 15-19 mm)
minimal inhibitory concentration (MIC) [3]: > 20 µg/mL
inhibition zone diameter (number of plus signs) [4]: +++ ((+++) 10-14 mm)
inhibition zone diameter (number of plus signs) [5]: ++ ((++) 7-9 mm)
inhibition zone diameter (number of plus signs) [6]: ++ ((++) 7-9 mm)
inhibition zone diameter (number of plus signs) [7]: ++ ((++) 7-9 mm)
minimal inhibitory concentration (MIC) ([8]; inoculum 16 × 10^6 CFU/ml): > 20 µg/mL
minimal inhibitory concentration (MIC) ([8]; inoculum 1200 CFU/ml): 10 to 20 µg/mL
minimal inhibitory concentration (MIC) [9]: 10 to 20 µg/mL
inhibition zone diameter (number of plus signs) [10]: ++ ((++) 7-9 mm)
inhibition zone diameter (number of plus signs) [11]: ++++ ((++++) 15-19 mm)
minimal inhibitory concentration (MIC) [12]: 10 to 20 µg/mL
inhibition zone diameter (number of plus signs) [13]: ++++ ((++++) 15-19 mm)
inhibition zone diameter (number of plus signs) [14]: ++++ ((++++) 15-19 mm)
inhibition zone diameter (number of plus signs) [15]: ++ ((++) 7-9 mm)
inhibition zone diameter (number of plus signs) [16]: ++ ((++) 7-9 mm)
inhibition zone diameter (number of plus signs) [17]: +++ ((+++) 10-14 mm)
minimal inhibitory concentration (MIC) [18]: 10 to 20 µg/mL
inhibition zone diameter (number of plus signs) [19]: ++ ((++) 7-9 mm)
minimal inhibitory concentration (MIC) [20]: 10 to 20 µg/mL
inhibition zone diameter (number of plus signs) [23]: ++ ((++) 7-9 mm)
minimal inhibitory concentration (MIC) [24]: 20 to 40 µg/mL
